# Paper PMC10763615, “Identification and engineering of potent cyclic peptides with selective or promiscuous binding through biochemical profiling and bioinformatic data analysis” (RSC Chemical Biology, 2023)
# Like-named read-outs stand apart in the source and are kept apart here.
# Key:
# [1] = biological target: T1, FGF-R4 ECD (Homo sapiens, UniProt P22455); test: single concentration BLI of crude peptides; type: binding; settings: read-out: KD (4)
# T1 construct: DNA constructs for the extracellular domain (ECD) of human FGF-; HPC4 (C); made in house; host or cells: HEK 293-6E
# T1 sequence (P22455 22-369 limits assumed): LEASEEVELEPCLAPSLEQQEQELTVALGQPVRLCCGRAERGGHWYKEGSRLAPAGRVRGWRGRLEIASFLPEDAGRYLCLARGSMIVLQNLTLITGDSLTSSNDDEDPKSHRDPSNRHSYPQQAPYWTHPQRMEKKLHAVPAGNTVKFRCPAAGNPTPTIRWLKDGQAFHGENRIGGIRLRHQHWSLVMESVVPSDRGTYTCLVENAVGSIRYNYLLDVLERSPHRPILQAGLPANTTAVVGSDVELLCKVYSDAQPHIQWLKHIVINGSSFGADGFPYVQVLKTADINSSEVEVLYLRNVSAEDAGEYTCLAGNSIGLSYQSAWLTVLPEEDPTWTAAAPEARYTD
# How it was run: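 Streptavidin biosensors carrying biotinylated FGF receptor ECD were immersed in peptide (~1 μM for crude single-point runs, a concentration series for purified peptides) and then in peptide-free buffer. KD was obtained by fitting the BLI association and dissociation curves.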
# [2] = biological target: T1, FGF-R4 ECD; test: multi-concentration BLI of purified peptides; type: binding
# How it was run: (§1)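 Biolayer interferometry with biotinylated FGF-R ECD on streptavidin biosensors in PBS pH 7.4, 0.05% Tween-20, 0.01% BSA. Multi-concentration: purified peptide dilution series fitted to a multi-point KD model.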
# [3] = biological target: T2, FGFR4/KLB (Fc-fused human FGF-R4 with beta-klotho) (Homo sapiens, UniProt P22455); test: AlphaScreen FGF21 competitive binding assay
# T2 sequence (P22455 22-369 limits assumed): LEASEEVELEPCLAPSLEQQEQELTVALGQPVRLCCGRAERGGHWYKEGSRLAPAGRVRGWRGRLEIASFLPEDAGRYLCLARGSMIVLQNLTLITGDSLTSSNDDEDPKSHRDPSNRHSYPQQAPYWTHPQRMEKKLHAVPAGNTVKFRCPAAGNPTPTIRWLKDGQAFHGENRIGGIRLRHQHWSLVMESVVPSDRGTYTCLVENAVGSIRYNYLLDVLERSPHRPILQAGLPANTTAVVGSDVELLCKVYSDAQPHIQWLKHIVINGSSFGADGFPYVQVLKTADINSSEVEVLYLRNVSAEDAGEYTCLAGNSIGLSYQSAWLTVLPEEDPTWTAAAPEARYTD
# Method: Alphascreen binding assay
# (§3) The competitive binding assay was carried out according to the methods detailed in Hansen. et al using
# (§4) AlphaScreen.3 All reagents and samples were prepared in assay buffer: 40mM Hepes, 140mM NaCl, 1mM
# (§5) CaCl2, 0,05% Tween20, pH=7.5, 0.1% BSA. In brief, recombinant human beta-klotho (R&D Systems) was
# (§6) preincubated for 60 min with the ectodomain, either Fc-fused human FGF-R1alpha(IIIc), FGF-R3alpha(IIIc)
# (§7) or FGF-R4 (R&D Systems), and the mixture was added to the test peptides in OptiPlate™ (PerkinElmer).
# (§8) Biotinylated FGF21 and heparin were further added to each well. AlphaScreen bead mix (1:1 mix of Protein
# (§9) A acceptor beads/ streptavidin-coated donor beads, PerkinElmer) were added to each well incubated
# (§10) overnight at RT in the dark, and measured on a plate reader (Envision). Assays were carried out in triplicates
# (§11) with concentrations ranging from 3, 10, 30, 100, 300 ,1000 and 3000 nM of peptide. No peptide control
# (§12) (media only) was used as a negative control, and unlabeled FGF21 and FGF1 as positive control.
# (§13) competing with biotinylated natural FGF21 ligand.
# [4] = biological target: T3, FGFR3c/BKL (Fc-fused human FGF-R3alpha(IIIc) with beta-klotho) (Homo sapiens, UniProt P22607); test: AlphaScreen FGF21 competitive binding assay
# T3 sequence (P22607 23-375 limits assumed): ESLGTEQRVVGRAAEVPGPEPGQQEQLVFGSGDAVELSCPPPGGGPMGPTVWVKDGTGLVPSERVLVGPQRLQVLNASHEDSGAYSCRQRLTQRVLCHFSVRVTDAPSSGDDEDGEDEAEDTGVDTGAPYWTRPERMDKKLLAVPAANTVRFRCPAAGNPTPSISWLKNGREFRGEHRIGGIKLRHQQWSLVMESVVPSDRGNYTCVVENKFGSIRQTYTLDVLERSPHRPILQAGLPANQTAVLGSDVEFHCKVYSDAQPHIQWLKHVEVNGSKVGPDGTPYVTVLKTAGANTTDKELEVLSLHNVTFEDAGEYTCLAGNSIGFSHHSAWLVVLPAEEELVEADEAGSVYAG
# Method: Alphascreen binding assay
# as §3, §4, §5, §6, §7, §8, §9, §10, §11, §12, §13
# [5] = biological target: T4, FGF-R1C ECD (Homo sapiens, UniProt P11362); test: biochemical
# T4 sequence (P11362 22-376 limits assumed): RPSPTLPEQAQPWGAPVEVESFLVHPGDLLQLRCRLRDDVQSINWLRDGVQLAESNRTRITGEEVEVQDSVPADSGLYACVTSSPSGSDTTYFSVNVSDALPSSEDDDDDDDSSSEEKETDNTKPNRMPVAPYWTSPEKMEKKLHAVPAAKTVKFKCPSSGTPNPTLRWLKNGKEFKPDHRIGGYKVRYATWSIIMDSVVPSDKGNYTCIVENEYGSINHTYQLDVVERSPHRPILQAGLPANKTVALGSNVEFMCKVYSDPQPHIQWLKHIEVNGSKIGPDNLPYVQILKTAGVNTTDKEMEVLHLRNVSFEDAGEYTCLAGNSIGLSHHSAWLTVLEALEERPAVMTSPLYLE
# How it was run: as §1
# [6] = biological target: T5, FGF-R3C ECD (Homo sapiens, UniProt P22607); test: biochemical
# T5 sequence (P22607 23-375 limits assumed): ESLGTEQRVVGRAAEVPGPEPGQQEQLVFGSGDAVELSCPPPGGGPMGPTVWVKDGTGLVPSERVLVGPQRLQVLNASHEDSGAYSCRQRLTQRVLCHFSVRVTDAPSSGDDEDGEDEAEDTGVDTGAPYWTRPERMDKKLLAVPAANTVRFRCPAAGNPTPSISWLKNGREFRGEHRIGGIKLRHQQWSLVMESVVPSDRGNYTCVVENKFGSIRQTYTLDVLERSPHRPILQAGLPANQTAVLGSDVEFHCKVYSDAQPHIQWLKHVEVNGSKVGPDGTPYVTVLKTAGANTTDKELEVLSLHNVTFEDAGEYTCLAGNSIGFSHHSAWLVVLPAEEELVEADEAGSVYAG
# How it was run: as §1
# [7] = biological target: T6, FGFR1c/KLB (Fc-fused human FGF-R1alpha(IIIc) with beta-klotho) (Homo sapiens, UniProt P11362); test: AlphaScreen FGF21 competitive binding assay
# T6 sequence (P11362 22-376 limits assumed): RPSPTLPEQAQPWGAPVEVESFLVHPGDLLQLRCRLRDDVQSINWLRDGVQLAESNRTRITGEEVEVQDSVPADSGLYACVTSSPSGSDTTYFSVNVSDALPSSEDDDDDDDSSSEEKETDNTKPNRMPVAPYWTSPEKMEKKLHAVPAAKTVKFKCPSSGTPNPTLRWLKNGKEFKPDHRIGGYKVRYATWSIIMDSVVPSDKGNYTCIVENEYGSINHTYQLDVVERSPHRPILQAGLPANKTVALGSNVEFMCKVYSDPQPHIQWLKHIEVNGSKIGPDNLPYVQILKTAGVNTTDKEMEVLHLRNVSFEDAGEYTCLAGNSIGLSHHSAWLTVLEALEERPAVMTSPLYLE
# [8] = biological target: T4, FGF-R1C ECD; test: biochemical; type: binding; design: DNA constructs for the extracellular domain (ECD) of human FGF-; HPC4 (C); made in house; host or cells: HEK 293-6E
# How it was run: (§2)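 BLI, streptavidin sensors loaded with biotinylated receptor ECD. Single-point: ~1 μM crude peptide, PBS pH7.4/0.05% Tween-20/0.01% BSA; association then dissociation in buffer. KD corrected for UPLC-CAD-determined concentration.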
# [9] = biological target: T5, FGF-R3C ECD; test: biochemical; type: binding; design: DNA constructs for the extracellular domain (ECD) of human FGF-; HPC4 (C); made in house; host or cells: HEK 293-6E
# How it was run: as §2
# [10] = crude NNK peptides, single concentration BLI (Table S3)
# [11] = crude T18 selection 1 (1:1:1) peptides, single concentration BLI (Table S4)
# [12] = purified trimer-18 library peptides
Compound,"Kd [1, 10] [nM]",Kd ([2]; purified NNK library peptides) [nM],IC50 [3] [nM],IC50 [4] [nM],Kd [5] [nM],Kd [6] [nM],IC50 [7] [nM],Kd [8] [nM],Kd [9] [nM],"Kd [1, 11] [nM]","Kd [2, 12] [nM]"
CC[C@H](C)[C@@H]1NC(=O)[C@@H](NC(=O)[C@@H](N)CCSC)CSSC[C@@H](C(=O)NCC(=O)N[C@@H](CO)C(=O)NCC(=O)N[C@@H](CO)C(=O)N[C@@H](CC(=O)O)C(=O)N[C@@H](Cc2ccc(O)cc2)C(=O)N[C@@H](CCCCN)C(=O)N[C@@H](CC(=O)O)C(=O)N[C@@H](CC(=O)O)C(=O)N[C@@H](CC(=O)O)C(=O)N[C@@H](CC(=O)O)C(=O)N[C@@H](CCCCN)C(N)=O)NC(=O)[C@H](CCCNC(=N)N)NC(=O)[C@H]([C@@H](C)O)NC(=O)[C@H](Cc2c[nH]c3ccccc23)NC(=O)[C@H](Cc2ccc(O)cc2)NC(=O)[C@H](CCC(N)=O)NC(=O)[C@H](Cc2ccc(O)cc2)NC(=O)[C@H]([C@@H](C)O)NC(=O)[C@H](Cc2ccc(O)cc2)NC(=O)[C@H](Cc2c[nH]c3ccccc23)NC(=O)[C@H](CCCCN)NC(=O)CNC1=O [1C.1],> 10000,> 1000,> 1000,> 1000,111,> 1000,249,488,> 10000,–,–
CSCC[C@@H]1NC(=O)[C@H](CC(N)=O)NC(=O)[C@H](CO)NC(=O)[C@@H](NC(=O)[C@@H](N)CCSC)CSSC[C@@H](C(=O)NCC(=O)N[C@@H](CO)C(=O)NCC(=O)N[C@@H](CO)C(=O)N[C@@H](CC(=O)O)C(=O)N[C@@H](Cc2ccc(O)cc2)C(=O)N[C@@H](CCCCN)C(=O)N[C@@H](CC(=O)O)C(=O)N[C@@H](CC(=O)O)C(=O)N[C@@H](CC(=O)O)C(=O)N[C@@H](CC(=O)O)C(=O)N[C@@H](CCCCN)C(N)=O)NC(=O)[C@H](C)NC(=O)[C@H](Cc2c[nH]c3ccccc23)NC(=O)[C@H](Cc2c[nH]c3ccccc23)NC(=O)[C@H](CCCNC(=N)N)NC(=O)[C@H](CC(N)=O)NC(=O)[C@H](C)NC(=O)[C@H](CC(C)C)NC(=O)[C@H](CCCCN)NC(=O)[C@H](Cc2c[nH]c3ccccc23)NC1=O [1C.3],> 10000,> 1000,> 1000,–,–,–,–,–,–,–,–
CC[C@H](C)[C@@H]1NC(=O)[C@H](CCCCN)NC(=O)[C@H](CO)NC(=O)[C@H](CC(N)=O)NC(=O)[C@@H]2CCCN2C(=O)[C@@H]2CCCN2C(=O)[C@H](CCCNC(=N)N)NC(=O)[C@H](Cc2c[nH]cn2)NC(=O)[C@H](Cc2ccc(O)cc2)NC(=O)[C@@H](NC(=O)[C@H](CCSC)NC(C)=O)CSSC[C@@H](C(=O)NCC(=O)N[C@@H](CO)C(=O)NCC(=O)N[C@@H](CO)C(=O)N[C@@H](CC(=O)O)C(=O)N[C@@H](Cc2ccc(O)cc2)C(=O)N[C@@H](CCCCN)C(=O)N[C@@H](CC(=O)O)C(=O)N[C@@H](CC(=O)O)C(=O)N[C@@H](CC(=O)O)C(=O)N[C@@H](CC(=O)O)C(=O)N[C@@H](CCCCN)C(N)=O)NC(=O)[C@H](CCCCN)NC(=O)[C@H](CCCNC(=N)N)NC(=O)[C@H](Cc2c[nH]c3ccccc23)NC1=O [4.14],–,–,–,–,> 1000,> 1000,–,> 10000,> 10000,214,524
CSCC[C@H](NC(C)=O)C(=O)N[C@H]1CSSC[C@@H](C(=O)NCC(=O)N[C@@H](CO)C(=O)NCC(=O)N[C@@H](CO)C(=O)N[C@@H](CC(=O)O)C(=O)N[C@@H](Cc2ccc(O)cc2)C(=O)N[C@@H](CCCCN)C(=O)N[C@@H](CC(=O)O)C(=O)N[C@@H](CC(=O)O)C(=O)N[C@@H](CC(=O)O)C(=O)N[C@@H](CC(=O)O)C(=O)N[C@@H](CCCCN)C(N)=O)NC(=O)[C@H]([C@@H](C)O)NC(=O)[C@H](C(C)C)NC(=O)[C@H](CC(C)C)NC(=O)[C@H](CC(C)C)NC(=O)[C@H](Cc2c[nH]c3ccccc23)NC(=O)[C@H](Cc2ccc(O)cc2)NC(=O)[C@H](CC(C)C)NC(=O)[C@H](C(C)C)NC(=O)[C@H](CCC(=O)O)NC(=O)[C@H](CCCNC(=N)N)NC(=O)[C@H](CCC(=O)O)NC1=O [4.15],–,–,–,–,> 1000,> 1000,–,48,> 10000,128,378
